Experimental data as given in patent publication US6930091B2, “Peptides and remedy for bone diseases containing the same as active ingredient” (priority 1995, dated 2005).
Where no end group is shown, it is not given here.

System: ddy male mice
Conditions: mouse, in vivo, iv
Protocol: By using the peptide prepared in Example 1, its acute toxicity was tested on ddy male mice (with the body weight ranging from 40 to 45 g). The present peptide was dissolved in a physiological saline (pH 6.0) and the solution thereof was administered intravenously into a vein in the tail of each mouse, and observation was made for 14 days. The dosage amount was set respectively at 1, 10, and 100 μg/kg.

Sequence: KLTTIFPLNWKYRKAL [Example 1, Lys Leu Thr Thr Ile Phe Pro Leu Asn Trp Lys Tyr Arg Lys Ala Leu]
- Deceased mice (in words): not deceased mouse observed
- Number of Deceased Mice: 0/5
